Assay results: patent US5608093A, “Corticosteroid 17-alkyl carbonate 21-[0]-carboxylic and carbonic esters, and pharmaceuticals containing these compounds” (Hoechst Aktiengesellschaft, priority 1993, dated 1997)

Experiments:
[1] = Split (ratio) of local to systemic antiinflammatory effect / therapeutic advantage; assay type: in vivo, rat
Experimental: (§1) 1. Local antiinflammatory effect in rat croton oil ear edema following epicutaneous application
(§2) We used the rat ear method of Tonelli et al.: male Wistar rats from our own colony and weighing about 50 g were treated epicutaneously on the right ear with the irritant or with irritant containing test substance. The left ear remained untreated. TPA (12-O-tetradecanoylphorbol 13-acetate, SIGMA P 8139) dissolved in acetone, 0.4 mg/ml, (of which 20 μl each on the inside and outside) was used for eliciting the inflammation. The corticoids under examination were dissolved in this solution in the given final concentrations. Controls only received the TPA/solvent mixture. The animals were sacrificed using CO2 4 h after the epicutaneous treatment. Disks measuring 8 mm in diameter were punched out of the right (treated) and the left (untreated) ears and weighed immediately. This difference, as the parameter for the degree of inflammation, was set at 100 in the controls (mg, x±s). The antiinflammatory effect is characterized by giving the dose in mg/ml which is required for approximately 50% inhibition: […]
The carrageenan paw edema test in rats in accordance with the method described by Winter et al. Proc. Soc. […] 6 h later, the degree of swelling was measured volumetrically. […]

[2] = system: croton oil (TPA) ear edema, rat ear; assay: Local antiinflammatory effect in rat croton oil ear edema following epicutaneous application; assay type: in vivo, rat (male Wistar); settings: for Inhibition in % / x ± s (mg), ear disk weight difference (right treated minus left untreated): epicutaneous, 4 h; for Local antiinflammatory effect (in words): general statement; for Relative local antiinflammatory potency (Result): rat ear edema, in words
Experimental: as §1, §2

carrageenan paw edema = assay: Systemic antiinflammatory effect following subcutaneous administration: carrageenan paw edema in rats; assay type: in vivo, rat (male Sprague-Dawley); settings: for Increase in volume (ml) (x ± s), paw: 6 h after carrageenan
Experimental: 2 a) Examining for systemic antiinflammatory effect in the "antiinflammatory effect following subcutaneous administration: carrageenan paw edema in rats" test.
The carrageenan paw edema test in rats in accordance with the method described by Winter et al. Proc. Soc. Exp. Biol. (New York) Volume 111, p. 544 (1962) was chosen as the test for the acute systemic antiinflammatory effect. Male Sprague-Dawley rats of about 120 g in weight were given the substances to be tested s.c. (0.2 ml/100 g) dissolved in sesame oil. 30 min later, 0.1 ml of a 0.5% carrageenan solution was injected into the left hind paw. 6 h later, the degree of swelling was measured volumetrically. Controls were only given sesame oil.
The paw volumes are given in ml, x±s. In this case too, the antiinflammatory effect is characterized by giving the dose in mg/kg required for approximately 50% inhibition.

[3] = system: gluconeogenesis in rats (liver); assay: Systemic effect: gluconeogenesis in adrenalectomized rats; settings: for Glycogen + glucose mg/100 g of liver / Liver glycogen: 6 h; for Effect on new formation of glucose and glycogen (in words): p 0.05, t test
Experimental: A sensitive method for detecting systemic effects on carbohydrate metabolism is to examine the gluconeogenic effect of corticosteroids in the adrenalectomized rat. Three days prior to the experiment, groups of in each case 6 rats are adrenalectomized under pentobarbital anesthesia and then provided with 0.9% sodium chloride solution as drinking fluid. Two days later, i.e. 24 hours before initiating the experiment, the feed is removed in order to reduce the glycogen stores in the liver.
On the day of the experiment, the preparations under examination are administered subcutaneously, dissolved in sesame oil (2 ml/kg). Six hours later, the animals are decapitated, and in each case the liver is removed and 1 g thereof is taken up in 5 ml of 0.6 molar perchloric acid. After homogenization, the free glucose is measured in the supernatant from the centrifugation, while the centrifugation sediment (centrifugate; glycogen) is cleaved enzymically with amyloglucosidase, after which the glucose content is also measured in this fraction (Hexokinase method, Boehringer Mannheim).

[4] = 3.0 mg/kg s.c., * p<0.05, Dunnett's test
[5] = 3 mg/kg s.c., * significant, t test

SMILES	Split / ratio of local to systemic antiinflammatory effect (in words) [1]	Inhibition in % ([2]; 0.03 mg/ml)	x ± s (mg), ear disk weight difference (right treated minus left untreated) ([2]; 0.03 mg/ml)	Inhibition in % ([2]; 0.1 mg/ml)	x ± s (mg), ear disk weight difference (right treated minus left untreated) ([2]; 0.1 mg/ml)	Inhibition in % ([2]; 0.3 mg/ml)	x ± s (mg), ear disk weight difference (right treated minus left untreated) ([2]; 0.3 mg/ml)	Local antiinflammatory effect (in words) [2]	Relative local antiinflammatory potency (Result) [2]	Increase in volume (ml) (x ± s), paw (carrageenan paw edema; 0.3 mg/kg s.c.)	Increase in volume (ml) (x ± s), paw (carrageenan paw edema; [4])	Glycogen + glucose mg/100 g of liver ([3]; 0.3 mg/kg s.c.)	Liver glycogen ([3]; 0.3 mg/kg s.c.)	Glycogen + glucose mg/100 g of liver [3, 5]	Liver glycogen [3, 5]	Effect on new formation of glucose and glycogen (in words) ([3]; 3 mg/kg s.c.)	Inhibition in % ([2]; 1 mg/ml)	x ± s (mg), ear disk weight difference (right treated minus left untreated) ([2]; 1 mg/ml)	Systemic effect in paw edema compared with the test compounds (in words) (carrageenan paw edema; significant only after 3 mg/kg, s.c.)
CCOC(=O)O[C@]1(C(=O)COC(=O)Cc2ccccc2)CC[C@H]2[C@@H]3CCC4=CC(=O)C=C[C@]4(C)[C@H]3[C@@H](O)C[C@@]21C [Compound I, Prednisolone 17-ethyl carbonate 21-phenylacetate]	strikingly favorable split to weak systemic activity	33%	10 ± 3.0 mg	67%	5 ± 1.1 mg	80%	3 ± 2.3 mg	strong local antiinflammatory effect	approximately three times more powerful than prednicarbate	0.34 ± 0.12 mL	0.19 ± 0.9 mL	11.3 ± 2.0 mg/100 g of liver	0.5 ± 0.7	25.9 ± 13 mg/100 g of liver	2.4 ± 2.4	do not have any significant effect at 3 mg/kg			
CCOC(=O)O[C@]1(C(=O)COC(=O)Cc2ccccc2)[C@@H](C)C[C@H]2[C@@H]3CCC4=CC(=O)C=C[C@]4(C)[C@@]3(F)[C@@H](O)C[C@@]21C [Compound II, Betamethasone 17-ethyl carbonate 21-phenyl acetate]	strikingly favorable split to weak systemic activity			66%	5.1 ± 3.3 mg	70%	4.5 ± 3.1 mg	strong local antiinflammatory effect	corresponding effect to that of compound I	0.33 ± 0.12 mL	0.19 ± 0.9 mL	23.6 ± 6.8 mg/100 g of liver	2.8 ± 1.4	37.9 ± 30 mg/100 g of liver	7.4 ± 10	do not have any significant effect at 3 mg/kg			
CCOC(=O)O[C@]1(C(=O)COC(=O)CC)CC[C@H]2[C@@H]3CCC4=CC(=O)C=C[C@]4(C)[C@H]3[C@@H](O)C[C@@]21C [Prednicarbate, prednisolone 17-ethyl carbonate 21-propionate, reference compound]																	80%	3 ± 1.7 mg	corresponds to the behavior of prednicarbate
